#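 Results reflect a 48-hour exposure of cells in 96-well plates to compound at five concentrations. The concentration for 50% growth inhibition is given as GI50.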 Calls of active or inactive are those of the source. No stated cut-off is given here; in the data, active = GI50 up to about 1.1 µM and inactive = higher.
# What was measured:
# Assay in all cases: DTP human tumour cell line panel, 48 h
# HL-60 = system: HL-60
# SF-539 = system: SF-539
# MOLT-4 = system: MOLT-4
# RXF 393 = system: RXF 393
# SNB-19 = system: SNB-19
# SK-MEL-28 = system: SK-MEL-28
# OVCAR-3 = system: OVCAR-3
# UACC-257 = system: UACC-257
# SR = system: SR
# SN12C = system: SN12C
# HCT-15 = system: HCT-15
# PC-3 = system: PC-3
# KM12 = system: KM12
# RPMI-8226 = system: RPMI-8226
# HCT-116 = system: HCT-116
# M14 = system: M14
# NCI-H460 = system: NCI-H460
# EKVX = system: EKVX
# NCI-H23 = system: NCI-H23
# CCRF-CEM = system: CCRF-CEM
SMILES,GI50 (HL-60),GI50 (SF-539),GI50 (MOLT-4),GI50 (RXF 393),GI50 (SNB-19),GI50 (SK-MEL-28),GI50 (OVCAR-3),GI50 (UACC-257),GI50 (SR),GI50 (SN12C),GI50 (HCT-15) [µM],GI50 (PC-3),GI50 (KM12),GI50 (RPMI-8226),GI50 (HCT-116),GI50 (M14),GI50 (NCI-H460),GI50 (EKVX),GI50 (NCI-H23),GI50 (CCRF-CEM)
COc1cccc2c(=O)oc(-c3ccc(C(C)(C)C)cc3)nc12,18.5 µM (inactive),> 100 µM (inactive),22.7 µM (inactive),49.3 µM (inactive),> 100 µM (inactive),> 100 µM (inactive),29.9 µM (inactive),> 100 µM (inactive),26.1 µM (inactive),96.8 µM (inactive),65.5,> 100 µM (inactive),32.4 µM (inactive),34.3 µM (inactive),49.9 µM (inactive),82 µM (inactive),65.8 µM (inactive),63.7 µM (inactive),> 100 µM (inactive),33.7 µM (inactive)
CCN1CN(c2ccccc2)C2(CCN(CC3COc4ccccc4O3)CC2)C1=O (centres undefined),16.1 µM (inactive),18.6 µM (inactive),14.5 µM (inactive),15.5 µM (inactive),36.2 µM (inactive),32.5 µM (inactive),31.2 µM (inactive),35.3 µM (inactive),5.13 µM (inactive),41.5 µM (inactive),20.5,25.3 µM (inactive),17.5 µM (inactive),17.4 µM (inactive),17.6 µM (inactive),2.21 µM (inactive),18.2 µM (inactive),–,40.6 µM (inactive),18.4 µM (inactive)
O=C1CN(c2ccccc2)C(=O)CN1NCNN1CC(=O)N(c2ccccc2)CC1=O,> 100 µM (inactive),> 100 µM (inactive),> 100 µM (inactive),> 100 µM (inactive),> 100 µM (inactive),> 100 µM (inactive),> 100 µM (inactive),> 100 µM (inactive),> 100 µM (inactive),> 100 µM (inactive),> 100,> 100 µM (inactive),> 100 µM (inactive),> 100 µM (inactive),> 100 µM (inactive),> 100 µM (inactive),> 100 µM (inactive),> 100 µM (inactive),58.5 µM (inactive),> 100 µM (inactive)
c1ccc2c(c1)Sc1nccc3ccnc-2c13,27.8 µM (inactive),47.6 µM (inactive),8.26 µM (inactive),63.8 µM (inactive),20.7 µM (inactive),36.9 µM (inactive),> 100 µM (inactive),73.6 µM (inactive),11.9 µM (inactive),39 µM (inactive),> 10,39.2 µM (inactive),61 µM (inactive),55.5 µM (inactive),27.4 µM (inactive),79.1 µM (inactive),5.57 µM (inactive),10.6 µM (inactive),36.8 µM (inactive),56.9 µM (inactive)
CC(=O)N1C(Nc2nccs2)CCN1c1ccccc1 (centres undefined),> 10 µM (inactive),> 10 µM (inactive),> 10 µM (inactive),> 10 µM (inactive),> 10 µM (inactive),> 10 µM (inactive),> 10 µM (inactive),> 10 µM (inactive),> 10 µM (inactive),> 10 µM (inactive),> 10,> 10 µM (inactive),–,> 10 µM (inactive),> 10 µM (inactive),> 10 µM (inactive),> 10 µM (inactive),> 10 µM (inactive),> 10 µM (inactive),> 10 µM (inactive)
CC(=O)Oc1ccc2oc(=O)cc(C)c2c1,> 100 µM (inactive),> 100 µM (inactive),> 100 µM (inactive),> 100 µM (inactive),> 100 µM (inactive),> 100 µM (inactive),> 100 µM (inactive),> 100 µM (inactive),> 100 µM (inactive),> 100 µM (inactive),–,> 10 µM (inactive),> 100 µM (inactive),> 100 µM (inactive),> 100 µM (inactive),> 100 µM (inactive),> 100 µM (inactive),> 100 µM (inactive),> 100 µM (inactive),> 100 µM (inactive)
O=Cc1ccc2c(c1)CC1(Cc3ccccc3C1)C2,19.4 µM (inactive),17.3 µM (inactive),18.4 µM (inactive),> 100 µM (inactive),–,–,14.3 µM (inactive),20.5 µM (inactive),2.82 µM (inactive),18.1 µM (inactive),11.5,25.9 µM (inactive),55.8 µM (inactive),24.8 µM (inactive),> 100 µM (inactive),13.1 µM (inactive),–,15.3 µM (inactive),23.3 µM (inactive),7.78 µM (inactive)
